{"source": "patent US7879853B2", "about": "“4,6-disubstituted pyrimidines and their use as protein kinase inhibitors” (Bayer Schering Pharma AG, priority 2004, dated 2011)", "key": {"MCF7 cells": {"test_system": "MCF7 cells", "assay": "Cellular proliferation/cytotoxicity assay (Alamar Blue), MCF7", "type": "cell-based", "settings": "Homo sapiens; MCF7, 48 hours, Alamar Blue (Resazurin); read-out: Anti-proliferative/cytotoxic activity: IC50 MCF7", "protocol": "The anti-proliferative activity of the compounds as described herein, is evaluated using MCF7 and MDA-MB-468 (ATCC HTB-22 and HTB-132) cell lines and the Alamar Blue (Resazurin) cell viability assay (O'Brien et al. Eur J Biochem 267, 5421-5426, 2000). Resazurin is reduced to the fluorescent rescrufin by cellular dehydrogenase activity, correlating with viable, proliferating cells. Test compounds are dissolved as 10 mM solutions in DMSO and subsequently diluted. MCF7 or […] cells were seeded into 96 well flat bottom plates at a density of 10000 cells/well (MCF7) or 5000 cells/well (MDA-MB-468) in a volume of 200 μl/well. 24 hours after seeding, 1 μl each of the compound dilutions are added into each well of the 96 well plates. Each compound dilution is tested as at least as duplicates. Wells containing untreated control cells were filled with 200 μl DMEM containing 0.5% v:v DMSO. The cells are then incubated with the substances for 48 hours at 37° C. in a humidified atmosphere containing 5% carbon dioxide. To determine cell viability, 20 μl of a Resazurin solution (Sigma; 90 mg/l) are added. After 4 hours incubation at 37° C. the fluorescence is measured at an extinction of 544 nm and an emission of 590 nm (Wallac Victor2; Perkin Elmer, USA). For the calculation of the cell viability the emission value from untreated cells is set as 100% viability and the emission rates of treated cells are set in relation to the values of untreated cells. Viabilities are expressed as % values. The corresponding IC50 values of the compounds for cytotoxic activity are determined from the concentration-effect curves by means of non-linear regression. The analysis of the data is performed using a biostatistical program (GraphPad Prism, USA)."}, "[1]": {"test_system": "phosphorylated GSK3 (Ser9) in MCF7 cells", "assay": "Cellular pGSK3 assay (pGSK3-ELISA)", "type": "cell-based", "settings": "Homo sapiens, 48 h, read-out: GSK3 inhibition (pGSK3-ELISA): IC50", "protocol": "In order to study the cellular activity of the compounds according to the invention, an ELISA-based assay has been established for the phosphorylated glycogen synthetase kinase 3, GSK3. The assay is based on a solid phase sandwich ELISA that detects endogenous levels of the phosphorylated GSK3 (BioSource International, Inc.; Catalog #KHO0461). A phospho-GSK3 (Ser9) antibody has been coated onto the microwells. After incubation with cell lysates, the coated antibody captures the phosphorylated GSK3 protein. Following extensive washing, GSK3 polyclonal antibody is added to detect the captured phospho-GSK3 protein. HRP-linked […] antibody (anti-rabbit IgG-HRP) is then used to recognize the bound detection antibody. […]\nCells are harvested and lysed with brief vortexing in cell extraction buffer (10 mM Tris, pH 7.4, 100 mM NaCl, 1 mM EDTA, 1 mM EGTA, 1 mM NaF, 20 mM Na4P2O7, 2 mM Na3VO4, 1% Triton X-100, 10% glycerol, 0.1% SDS, 0.5% deoxycholate, 1 mM PMSF). […] The absorbance is measured at 450 nm (Wallac Victor2; Perkin Elmer, USA) within 30 minutes after adding Stop solution. The analysis of the data is performed using a statistical program (Microsoft Excel, USA) and the inhibition of pGSK3 phosphorylation is determined."}}}
{"smiles": "CC(C)(N)c1ccc(C(=O)Nc2ccc(Nc3cc(-c4cccc5c4oc4ccccc45)ncn3)cc2)cc1", "note": "[Compound 69, 4-(1-Amino-1-methyl-ethyl)-N-[4-(6-dibenzofuran-4-yl-pyrimidin-4-ylamino)-phenyl]-benzamide trifluoracetate]", "values": [{"measurement": "IC50", "setting": "MCF7 cells", "value": "≤ 16.6", "unit": "µM"}, {"measurement": "IC50", "setting": "[1]", "value": 10, "unit": "µM"}]}
